Test results: patent publication US10159256B2, “Organic pruning wound composition” (The Regents of the University of California, priority 2014, dated 2018)

Tests used:
Assay in all cases: Micro- and macronutrients tested against trunk disease fungi
Conditions in all cases: among all micro- and macronutrients tested
[1] = test system: Pa. chlamydospora
Source text: (§1) However, these products are not registered as organic products, leaving organic growers with no alternatives for controlling trunk diseases.

[2] = test system: P. viticola
Source text: as §1

[3] = test system: D. seriata
Source text: as §1

[4] = test system: Pm. Alephilum
Source text: as §1

[5] = test system: E. lata
Source text: as §1

[B] [boron (B), boron]
most effective: effectiveness against Pa. chlamydospora [1] | effectiveness against P. viticola [2] | effectiveness against D. seriata [3] | effectiveness against Pm. Alephilum [4] | effectiveness against E. lata [5]

[Zn] [zinc (Zn), zinc]
most effective: effectiveness against Pa. chlamydospora [1] | effectiveness against P. viticola [2] | effectiveness against D. seriata [3] | effectiveness against Pm. Alephilum [4] | effectiveness against E. lata [5]
